Results published in patent US20240252673A1, “ANTI-TISSUE FACTOR ANTIBODY-DRUG CONJUGATES AND THEIR USE IN THE TREATMENT OF CANCER” (priority 2017, published 2024).

Assays:
Type in all cases: in vivo, human
[1] = test system: relapsed, recurrent and/or metastatic cervical cancer; assay: Phase IIa single arm trial: anti-tumor activity per RECIST v1.1
[2] = Phase I/II dose-escalation study: plasma pharmacokinetics; conditions: cycle 1, plasma, geometric mean (% CV)
Procedure: A first-in-human phase I/II dose-escalating study following a 3+3 dose-escalation design was conducted in order to test the safety of tisotumab vedotin in 27 subjects with locally advanced and/or metastatic cancer of various types including cervical cancer (FIG. 2). Tisotumab vedotin was administered by intravenous infusion at doses ranging from 0.3 mg/kg to 2.2 mg/kg on day 1 of a 21-day cycle for four cycles (i.e., each treatment cycle was 3 weeks). Patients with stable disease (SD) or better at the end of four cycles had the option to continue treatment with tisotumab vedotin for eight additional cycles (FIG. 2). Tumor evaluations were performed by CT scans every six weeks. In order to qualify for SD, results of the CT scan scheduled for week six needed to be SD or better. Two CT scans were performed outside the per-protocol defined window.
A primary objective of the study was to assess the safety and tolerability in a mixed population of patients with specified solid tumors. Adverse event (AE) severity was graded according to Common Terminology Criteria for Adverse Events (CTCAE) version 4.03. Secondary objectives of the study included determining the pharmacokinetic (PK) profile of tisotumab vedotin and preliminary evaluation of anti-tumor activity as assessed according to Response Evaluation Criteria in Solid Tumors [RECIST] version 1.1. Dose-limiting toxicities (DLTs) were determined during the first cycle and were defined as grade≥3 events possibly related to tisotumab vedotin. […] Tumor biopsies were required at baseline for TF expression which was assessed by immunohistochemistry utilizing tisotumab. TF staining intensity was determined using the H-scoring system.
The geometric means (% CV) of the time to reach Cmax (Tmax)(hr), maximum concentration (Cmax)(ng/mL), and area under the concentration time curve (AUC)0-t (hr*ng/mL) was measured for the pharmacokinetics (PK) portion of the study (Table 3). Low levels of unconjugated MMAE were measured in systemic circulation (FIG. 4).

[3] = test system: tisotumab vedotin treated patients; assay: Adverse events of special interest reported in tisotumab vedotin treated patients
From the text: Three adverse events of special interest are ocular adverse events, adverse events of peripheral neuropathy, and adverse events of bleeding. […] Severe cases (CTCAE grade 3) of conjunctivitis and keratitis are observed, however implementation of a comprehensive mitigation plan and preventive measures substantially reduce both the frequency and severity of ocular adverse reactions. In order to prevent ocular AEs, the following ocular pre-medication guidelines are followed: use of preservative-free lubricating eye drops from the start of treatment with tisotumab vedotin until the end of treatment; avoid use of contact lenses while treated with tisotumab vedotin; use of refrigerator-based eye cooling pads during infusion, e.g. THERA PEARL Eye Mask or similar, to be applied immediately before infusion in accordance with the instructions provided with the eye cooling pads; administration of local ocular vasoconstrictor before infusion (brimonidine tartrate 0.2% eye drops or similar, 3 drops in each eye immediately prior to start of infusion; otherwise to be used in accordance with the product prescribing information).
A mitigation plan, including dose reduction (see Table 9) and dose delay (i.e., hold dosing until event has improved to ≤grade 1), is in place to prevent onset of peripheral neuropathy as well as deterioration of pre-existing conditions. For AEs of bleeding: Bleeding events are considered of special interest due to the mode of action of tisotumab vedotin. […] Excluding epistaxis, no causal relation has been established for the majority of the reported bleeding events and treatment with tisotumab vedotin.

tisotumab vedotin
Median DoR ([1]; 2.0 mg/kg q3w, N = 34): 8.3 months
Objective response rate (ORR) ([1]; 2.0 mg/kg q3w, N = 34): 11 n
DCR (CR + PR + SD) ([1]; 2.0 mg/kg q3w, N = 34, clinical benefit after 12 weeks): 17 n
ORR, combined unconfirmed + confirmed ([1]; expanded cohort, all efficacy-evaluable patients, N 51): 16 N
ORR, combined unconfirmed + confirmed ([1]; expanded cohort, all efficacy-evaluable patients, N 51, 95% CI 19-46): 31%
ORR, combined unconfirmed + confirmed ([1]; histology Adenocarcinoma, N 18): 4 N
ORR, combined unconfirmed + confirmed ([1]; histology Adenocarcinoma, N 18, 95% CI 6-48): 22%
ORR, combined unconfirmed + confirmed ([1]; histology Adenosquamous, N 4): 2 N
ORR, combined unconfirmed + confirmed ([1]; histology Adenosquamous, N 4, 95% CI 7-93): 50%
ORR, combined unconfirmed + confirmed ([1]; histology Other, N 2): 1 N
ORR, combined unconfirmed + confirmed ([1]; histology Other, N 2, 95% CI 1-99): 50%
ORR, combined unconfirmed + confirmed ([1]; histology Squamous, N 27): 9 N
ORR, combined unconfirmed + confirmed ([1]; histology Squamous, N 27, 95% CI 17-54): 33%
ORR, combined unconfirmed + confirmed ([1]; prior GOG 240 regimen No, N 14): 4 N
ORR, combined unconfirmed + confirmed ([1]; prior GOG 240 regimen No, N 14, 95% CI 8-58): 29%
ORR, combined unconfirmed + confirmed ([1]; prior GOG 240 regimen Yes, N 37): 12 N
ORR, combined unconfirmed + confirmed ([1]; prior GOG 240 regimen Yes, N 37, 95% CI 18-50): 32%
ORR, combined unconfirmed + confirmed ([1]; prior bevacizumab No, N 11): 4 N
ORR, combined unconfirmed + confirmed ([1]; prior bevacizumab No, N 11, 95% CI 11-69): 36%
ORR, combined unconfirmed + confirmed ([1]; prior bevacizumab Yes, N 40): 12 N
ORR, combined unconfirmed + confirmed ([1]; prior bevacizumab Yes, N 40, 95% CI 17-47): 30%
ORR, combined unconfirmed + confirmed ([1]; prior lines of systemic therapy 1, N 23): 8 N
ORR, combined unconfirmed + confirmed ([1]; prior lines of systemic therapy 1, N 23, 95% CI 16-57): 35%
ORR, combined unconfirmed + confirmed ([1]; prior lines of systemic therapy 2, N 17): 6 N
ORR, combined unconfirmed + confirmed ([1]; prior lines of systemic therapy 2, N 17, 95% CI 14-62): 35%
ORR, combined unconfirmed + confirmed ([1]; prior lines of systemic therapy 3-4, N 11): 2 N
ORR, combined unconfirmed + confirmed ([1]; prior lines of systemic therapy 3-4, N 11, 95% CI 2-52): 18%
ORR, combined unconfirmed + confirmed ([1]; prior taxane No, N 3): 1 N
ORR, combined unconfirmed + confirmed ([1]; prior taxane No, N 3, 95% CI 1-91): 33%
ORR, combined unconfirmed + confirmed ([1]; prior taxane Yes, N 48): 15 N
ORR, combined unconfirmed + confirmed ([1]; prior taxane Yes, N 48, 95% CI 19-46): 31%
AUC0-t ([2]; 0.3 mg/kg, N 3): 59216.8 (3%) hr * ng/ml
Cmax ([2]; 0.3 mg/kg, N 3): 4782.7 (12%) ng/ml
Tmax ([2]; 0.3 mg/kg, N 3): 1.5 (73%) hr
AUC0-t ([2]; 0.6 mg/kg, N 3): 368432.7 (8%) hr * ng/ml
Cmax ([2]; 0.6 mg/kg, N 3): 12195.3 (10%) ng/ml
Tmax ([2]; 0.6 mg/kg, N 3): 1.2 (13%) hr
AUC0-t ([2]; 0.9 mg/kg, N 3): 601926.2 (17%) hr * ng/ml
Cmax ([2]; 0.9 mg/kg, N 3): 19811.6 (17%) ng/ml
Tmax ([2]; 0.9 mg/kg, N 3): 1.3 (12%) hr
AUC0-t ([2]; 1.2 mg/kg, N 3): 1084672.7 (9%) hr * ng/ml
Cmax ([2]; 1.2 mg/kg, N 3): 34673.1 (19%) ng/ml
Tmax ([2]; 1.2 mg/kg, N 3): 1.3 (12%) hr
AUC0-t ([2]; 1.5 mg/kg, N 3): 794988.4 (19%) hr * ng/ml
Cmax ([2]; 1.5 mg/kg, N 3): 23115.6 (21%) ng/ml
Tmax ([2]; 1.5 mg/kg, N 3): 1.1 (9.6%) hr
AUC0-t ([2]; 1.8 mg/kg, N 3): 1504823.8 (50%) hr * ng/ml
Cmax ([2]; 1.8 mg/kg, N 3): 35416.3 (39%) ng/ml
Tmax ([2]; 1.8 mg/kg, N 3): 1.2 (14%) hr
AUC0-t ([2]; 2.0 mg/kg, N 3): 1256379.7 (33%) hr * ng/ml
Cmax ([2]; 2.0 mg/kg, N 3): 32296.1 (22%) ng/ml
Tmax ([2]; 2.0 mg/kg, N 3): 1.2 (8%) hr
AUC0-t ([2]; 2.2 mg/kg, N 6): 2037070.5 (34%) hr * ng/ml
Cmax ([2]; 2.2 mg/kg, N 6): 55530.3 (10%) ng/ml
Tmax ([2]; 2.2 mg/kg, N 6): 1.1 (13%) hr
AEs of grade 1-2 conjunctivitis ([3]; human, in vivo): frequently reported
impact on activated partial thromboplastin time (aPTT) or prothrombin time (PT) ([3]; human, in vivo): no major impact
peripheral neuropathy, grade of the reported cases ([3]; leading cause of permanent discontinuation): majority of the reported cases are grade 1-2
Epistaxis ([3]; nearly all of the cases are grade 1): most common reported AE
